Data: the kinase profiling compilation of Christmann-Franck et al. (2016)

What was measured:
Experiment in all cases: KINOMEscan competition binding
Conditions in all cases: compound 10.0 µM
[1] = tested on: MET (human), P08581 [Y1235D]
[2] = biological target: MET (human) (UniProt P08581)
[3] = biological target: MARK2 (human) (UniProt Q7KZI7)
[4] = biological target: ERBB3 (human) (UniProt P21860)
[5] = biological target: IRAK3 (human) (UniProt Q9Y616)
[6] = biological target: CSNK1G2 (human) (UniProt P78368)
[7] = biological target: MAPK3 (human) (UniProt P27361)
Sequence of MAPK3 (human) (P27361 whole entry, looked up): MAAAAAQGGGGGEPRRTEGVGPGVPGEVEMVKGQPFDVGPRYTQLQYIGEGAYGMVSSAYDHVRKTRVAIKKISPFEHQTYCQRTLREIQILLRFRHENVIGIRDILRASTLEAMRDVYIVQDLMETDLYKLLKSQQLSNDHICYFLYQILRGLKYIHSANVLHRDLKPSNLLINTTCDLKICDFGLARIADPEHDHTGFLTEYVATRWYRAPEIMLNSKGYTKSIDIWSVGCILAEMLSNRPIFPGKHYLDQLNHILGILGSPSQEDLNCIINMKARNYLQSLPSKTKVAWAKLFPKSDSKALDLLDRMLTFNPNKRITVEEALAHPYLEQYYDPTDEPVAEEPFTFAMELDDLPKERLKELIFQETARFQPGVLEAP

[8] = biological target: LTK (human) (UniProt P29376)
[9] = biological target: CSNK1E (human) (UniProt P49674)
[10] = biological target: CSF1R (human) (UniProt P07333)
[11] = biological target: PKN1 (human) (UniProt Q16512)
Sequence of PKN1 (human) (Q16512 whole entry, looked up): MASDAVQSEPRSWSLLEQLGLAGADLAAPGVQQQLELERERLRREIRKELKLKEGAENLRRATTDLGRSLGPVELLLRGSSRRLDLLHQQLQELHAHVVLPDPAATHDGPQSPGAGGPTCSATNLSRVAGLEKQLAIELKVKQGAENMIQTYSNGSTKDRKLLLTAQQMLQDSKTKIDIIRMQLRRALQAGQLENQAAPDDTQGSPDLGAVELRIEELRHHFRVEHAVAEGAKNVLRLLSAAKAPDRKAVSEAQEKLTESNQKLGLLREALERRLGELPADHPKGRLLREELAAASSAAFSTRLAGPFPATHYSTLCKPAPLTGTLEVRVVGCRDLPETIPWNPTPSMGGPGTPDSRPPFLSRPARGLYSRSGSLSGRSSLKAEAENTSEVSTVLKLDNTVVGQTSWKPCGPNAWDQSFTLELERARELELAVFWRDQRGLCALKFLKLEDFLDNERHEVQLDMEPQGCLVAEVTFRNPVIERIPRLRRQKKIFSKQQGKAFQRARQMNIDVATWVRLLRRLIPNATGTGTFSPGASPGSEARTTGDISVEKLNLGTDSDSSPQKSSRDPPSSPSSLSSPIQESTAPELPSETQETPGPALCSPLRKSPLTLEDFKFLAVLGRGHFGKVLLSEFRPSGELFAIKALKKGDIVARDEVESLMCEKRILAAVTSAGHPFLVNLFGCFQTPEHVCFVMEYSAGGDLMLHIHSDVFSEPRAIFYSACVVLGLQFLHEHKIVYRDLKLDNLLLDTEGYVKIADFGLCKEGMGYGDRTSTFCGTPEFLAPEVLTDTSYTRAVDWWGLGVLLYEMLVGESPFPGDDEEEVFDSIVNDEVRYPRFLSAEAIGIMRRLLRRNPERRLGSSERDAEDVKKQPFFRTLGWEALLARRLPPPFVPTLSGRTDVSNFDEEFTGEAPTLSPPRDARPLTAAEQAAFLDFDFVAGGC

[12] = biological target: DCLK2 (human) (UniProt Q8N568)
[13] = biological target: EPHB6 (human) (UniProt O15197)
[14] = biological target: PIM1 (human) (UniProt P11309)
Sequence of PIM1 (human) (P11309 whole entry, looked up): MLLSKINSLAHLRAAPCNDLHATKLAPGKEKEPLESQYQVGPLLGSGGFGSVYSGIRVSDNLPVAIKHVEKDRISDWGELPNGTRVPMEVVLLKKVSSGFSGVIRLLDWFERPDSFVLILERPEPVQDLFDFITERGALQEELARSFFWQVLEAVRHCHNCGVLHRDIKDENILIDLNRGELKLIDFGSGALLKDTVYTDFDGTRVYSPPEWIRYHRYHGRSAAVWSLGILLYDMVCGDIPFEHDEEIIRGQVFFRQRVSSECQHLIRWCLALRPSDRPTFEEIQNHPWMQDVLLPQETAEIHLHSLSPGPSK

[15] = biological target: BMPR2 (human) (UniProt Q13873)
[16] = biological target: CHEK2 (human) (UniProt O96017)
[17] = biological target: PRPF4B (human) (UniProt Q13523)
[18] = biological target: RIOK1 (human) (UniProt Q9BRS2)
Sequence of RIOK1 (human) (Q9BRS2 whole entry, looked up): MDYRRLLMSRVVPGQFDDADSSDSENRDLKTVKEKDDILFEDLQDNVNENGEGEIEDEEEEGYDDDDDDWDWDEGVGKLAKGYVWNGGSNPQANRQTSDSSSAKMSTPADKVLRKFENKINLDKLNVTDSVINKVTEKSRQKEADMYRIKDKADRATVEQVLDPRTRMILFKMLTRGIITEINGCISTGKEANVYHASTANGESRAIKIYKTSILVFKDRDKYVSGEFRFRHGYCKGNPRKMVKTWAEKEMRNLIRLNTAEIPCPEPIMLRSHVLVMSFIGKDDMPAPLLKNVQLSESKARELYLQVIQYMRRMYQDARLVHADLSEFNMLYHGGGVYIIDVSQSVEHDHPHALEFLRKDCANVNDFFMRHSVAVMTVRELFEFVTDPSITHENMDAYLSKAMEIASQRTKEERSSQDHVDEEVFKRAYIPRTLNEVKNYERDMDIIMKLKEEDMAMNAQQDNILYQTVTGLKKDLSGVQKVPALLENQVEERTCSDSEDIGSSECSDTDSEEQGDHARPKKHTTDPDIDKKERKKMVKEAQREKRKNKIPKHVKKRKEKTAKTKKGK

[19] = biological target: LYN (human) (UniProt P07948)
Sequence of LYN (human) (P07948 whole entry, looked up): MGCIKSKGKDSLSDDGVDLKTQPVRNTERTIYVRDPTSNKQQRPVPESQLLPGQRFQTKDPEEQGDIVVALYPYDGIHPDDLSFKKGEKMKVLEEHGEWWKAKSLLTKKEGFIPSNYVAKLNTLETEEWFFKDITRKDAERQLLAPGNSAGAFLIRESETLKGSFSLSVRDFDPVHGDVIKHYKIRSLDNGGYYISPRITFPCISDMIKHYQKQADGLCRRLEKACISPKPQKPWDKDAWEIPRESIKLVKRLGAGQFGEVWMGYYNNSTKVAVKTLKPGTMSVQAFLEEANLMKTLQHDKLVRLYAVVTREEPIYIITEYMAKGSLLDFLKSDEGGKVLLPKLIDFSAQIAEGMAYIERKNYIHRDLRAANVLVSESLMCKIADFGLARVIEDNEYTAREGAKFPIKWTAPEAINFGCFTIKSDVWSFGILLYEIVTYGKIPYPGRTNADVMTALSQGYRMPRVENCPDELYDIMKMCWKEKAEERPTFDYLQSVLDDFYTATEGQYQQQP

[20] = biological target: HIPK2 (human) (UniProt Q9H2X6)
[21] = biological target: RAF1 (human) (UniProt P04049)
[22] = biological target: MAPK6 (human) (UniProt Q16659)
Sequence of MAPK6 (human) (Q16659 whole entry, looked up): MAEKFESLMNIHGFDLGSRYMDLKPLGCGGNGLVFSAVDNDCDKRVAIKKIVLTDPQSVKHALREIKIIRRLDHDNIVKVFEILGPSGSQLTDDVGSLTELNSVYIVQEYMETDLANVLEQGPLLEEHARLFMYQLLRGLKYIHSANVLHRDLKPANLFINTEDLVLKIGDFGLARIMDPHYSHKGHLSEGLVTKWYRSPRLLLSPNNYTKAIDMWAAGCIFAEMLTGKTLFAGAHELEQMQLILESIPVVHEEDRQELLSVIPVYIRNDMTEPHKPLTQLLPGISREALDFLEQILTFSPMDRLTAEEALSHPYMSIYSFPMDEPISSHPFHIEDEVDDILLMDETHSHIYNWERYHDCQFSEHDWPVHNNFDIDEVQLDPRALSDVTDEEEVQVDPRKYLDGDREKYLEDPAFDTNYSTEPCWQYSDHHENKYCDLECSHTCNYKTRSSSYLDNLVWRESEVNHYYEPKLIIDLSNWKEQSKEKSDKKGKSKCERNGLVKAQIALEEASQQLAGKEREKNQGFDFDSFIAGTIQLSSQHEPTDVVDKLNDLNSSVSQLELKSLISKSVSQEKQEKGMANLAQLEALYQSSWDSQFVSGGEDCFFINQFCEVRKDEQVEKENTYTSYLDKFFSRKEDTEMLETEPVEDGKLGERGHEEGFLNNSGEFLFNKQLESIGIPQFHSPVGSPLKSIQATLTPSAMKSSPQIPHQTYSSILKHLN

[23] = biological target: MAST1 (human) (UniProt Q9Y2H9)
[24] = tested on: FLT3 (human), P36888 [D835H]
[25] = biological target: GRK7 (human) (UniProt Q8WTQ7)
[26] = biological target: INSR (human) (UniProt P06213)
[27] = biological target: EPHB3 (human) (UniProt P54753)
Sequence of EPHB3 (human) (P54753 whole entry, looked up): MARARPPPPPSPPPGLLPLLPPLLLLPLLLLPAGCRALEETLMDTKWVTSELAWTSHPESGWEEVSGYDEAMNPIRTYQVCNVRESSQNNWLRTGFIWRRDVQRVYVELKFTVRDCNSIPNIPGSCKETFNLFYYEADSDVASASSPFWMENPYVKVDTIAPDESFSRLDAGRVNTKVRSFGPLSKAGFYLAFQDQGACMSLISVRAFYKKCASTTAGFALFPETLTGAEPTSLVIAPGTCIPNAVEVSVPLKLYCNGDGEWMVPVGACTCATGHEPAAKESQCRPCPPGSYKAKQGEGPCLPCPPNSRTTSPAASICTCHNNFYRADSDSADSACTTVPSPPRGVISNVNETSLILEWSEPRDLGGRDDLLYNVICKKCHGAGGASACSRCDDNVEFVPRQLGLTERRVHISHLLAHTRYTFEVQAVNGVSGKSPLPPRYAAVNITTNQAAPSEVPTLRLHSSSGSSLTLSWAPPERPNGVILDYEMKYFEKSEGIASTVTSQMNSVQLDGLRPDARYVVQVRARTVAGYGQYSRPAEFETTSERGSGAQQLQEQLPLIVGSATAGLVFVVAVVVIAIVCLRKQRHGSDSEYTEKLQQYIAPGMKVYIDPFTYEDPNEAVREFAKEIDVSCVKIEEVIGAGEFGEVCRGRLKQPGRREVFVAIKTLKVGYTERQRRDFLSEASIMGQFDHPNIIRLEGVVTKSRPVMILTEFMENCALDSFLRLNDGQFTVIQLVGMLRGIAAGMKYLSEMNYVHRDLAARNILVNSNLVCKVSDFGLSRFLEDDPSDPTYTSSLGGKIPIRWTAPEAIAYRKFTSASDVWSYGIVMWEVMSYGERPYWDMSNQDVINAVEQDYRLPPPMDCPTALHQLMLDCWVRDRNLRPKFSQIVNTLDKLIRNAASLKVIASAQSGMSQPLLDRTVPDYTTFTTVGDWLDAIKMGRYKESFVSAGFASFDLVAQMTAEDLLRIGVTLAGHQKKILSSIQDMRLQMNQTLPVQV

[28] = biological target: PIP5K1A (human) (UniProt Q99755)
[29] = biological target: NUAK2 (human) (UniProt Q9H093)
[30] = biological target: MAP4K2 (human) (UniProt Q12851)
[31] = biological target: MAP3K11 (human) (UniProt Q16584)

Sequence of IRAK3 (human) (Q9Y616 whole entry, looked up): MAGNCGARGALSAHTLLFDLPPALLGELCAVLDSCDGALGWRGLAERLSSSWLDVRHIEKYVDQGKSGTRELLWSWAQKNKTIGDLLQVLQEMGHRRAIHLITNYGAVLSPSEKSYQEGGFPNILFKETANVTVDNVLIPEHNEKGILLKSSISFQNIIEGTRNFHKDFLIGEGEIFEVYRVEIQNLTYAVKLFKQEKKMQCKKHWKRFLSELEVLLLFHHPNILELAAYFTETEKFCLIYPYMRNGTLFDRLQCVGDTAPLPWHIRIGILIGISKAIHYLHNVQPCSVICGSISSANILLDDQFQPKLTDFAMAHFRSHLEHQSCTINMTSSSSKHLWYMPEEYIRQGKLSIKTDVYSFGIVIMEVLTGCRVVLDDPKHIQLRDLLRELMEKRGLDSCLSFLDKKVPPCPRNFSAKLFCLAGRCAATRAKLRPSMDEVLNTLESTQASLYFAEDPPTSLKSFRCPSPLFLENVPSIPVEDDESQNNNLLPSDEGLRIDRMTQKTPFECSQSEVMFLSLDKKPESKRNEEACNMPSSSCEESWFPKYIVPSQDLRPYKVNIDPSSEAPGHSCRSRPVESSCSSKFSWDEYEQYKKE

Row | SMILES | kinase still bound, per cent of control [2] [%] | kinase still bound, per cent of control [3] [%] | kinase still bound, per cent of control [5] [%] | kinase still bound, per cent of control [6] [%] | kinase still bound, per cent of control [7] [%] | kinase still bound, per cent of control [8] [%] | kinase still bound, per cent of control [9] [%] | kinase still bound, per cent of control [10] [%] | kinase still bound, per cent of control [11] [%] | kinase still bound, per cent of control [12] [%] | kinase still bound, per cent of control [14] [%] | kinase still bound, per cent of control [15] [%] | kinase still bound, per cent of control [18] [%] | kinase still bound, per cent of control [19] [%] | kinase still bound, per cent of control [21] [%] | kinase still bound, per cent of control [22] [%] | kinase still bound, per cent of control [24] [%] | kinase still bound, per cent of control [27] [%] | kinase still bound, per cent of control [28] [%] | kinase still bound, per cent of control [29] [%] | further results
1 | CS(=O)(=O)N1CCN(Cc2cc3nc(-c4cccc5[nH]ncc45)nc(N4CCOCC4)c3s2)CC1 | 100 | 100 | 100 | 100 | 100 | 100 | 100 | 100 | 100 | 100 | 100 | 100 | 100 | 100 | 100 | 100 | 100 | 100 | 100 | 100 | kinase still bound, per cent of control [1]: 100%; kinase still bound, per cent of control [4]: 100%; kinase still bound, per cent of control [13]: 100%; kinase still bound, per cent of control [16]: 100%; kinase still bound, per cent of control [17]: 100%; kinase still bound, per cent of control [20]: 100%; kinase still bound, per cent of control [23]: 100%; kinase still bound, per cent of control [25]: 100%; kinase still bound, per cent of control [26]: 100%; kinase still bound, per cent of control [30]: 100%
2 | CCN(CC)CCCCNc1ncc2cc(-c3cc(OC)cc(OC)c3)c(NC(=O)NC(C)(C)C)nc2n1 | 100 | 100 | 100 | 100 | 100 | 100 | 100 | 6.6 | 100 | 100 | 100 | 100 | 100 | 100 | 100 | 100 | 100 | 100 | 100 | 100 | kinase still bound, per cent of control [31]: 100%
